For the series, the system named is HaCaT and/or MRC5 eukaryotic cells. Type of series: cell-based, human. From the text:
The eukaryotic cells used in our study are HaCaT cells (human keratinocytes), which were kindly supplied by the Pierre Fabre Institute (Toulouse, France); and MRC-5 cells (human embryonic fibroblasts), which were obtained from the company BioMérieux (Lyons, France). These cells are cultivated in DMEM (“Dulbecco's modified Eagle's medium”, Invitrogen 61965) for the HaCaT cells, and MEM (“modified Eagle's medium”, Invitrogen 41090); 10% of fetal calf serum (FCS, Invitrogen, 10270, Batch 40Q5150K) in a humid chamber at 37° C., under 5% CO2. The HaCaT and MRC-5 cells were seeded at 10^4 cells/well in 96-well plates (Sarstedt 831835). […]
It is based on the reduction of yellow tetrazolium salts to purple crystals of formazan, mainly by mitochondrial dehydrogenases. The quantity of formazan formed is proportional to the number of live cells. […] The absorbance is measured at 540 nm with a reference wavelength at 690 nm, using an ELISA plate reader (Multiskan E X, Thermo Electron Corporation, France). […]
The cytotoxicity test is based on incorporation of a vital dye, Neutral Red, in the lysosomes of the viable cells, after exposure of the cells to different concentrations of the test molecules. The quantity of dye, after extraction from the lysosomes, is quantified by means of a spectrophotometer and compared with that obtained in the case of “control” cells, not exposed to the test molecules. […]

For `N=C(N)NCCc1ccc(OCCCCCCOc2ccc(CCNC(=N)N)cc2)cc1` [compound 6, 1,6-bis(4-(2-guanidinoethyl)phenoxy)hexane], the “effect on viability and cytotoxicity (in words)” value was “slightly less pronounced effect on viability and cytotoxicity”.

The values above are taken from US8703825B2, “Compounds, use thereof as medicaments, and method of preparation thereof” (Universite de Lorraine, priority 2008, dated 2014).
